Strand notation (5' to 3'): a small letter for the sugar, then the base; units joined by * are phosphorothioate-linked, units joined directly phosphodiester-linked; [ ] holds rarer units or linkages, { } end groups; capitals alone tell only the bases. e = 2'-O-(2-methoxyethyl) (MOE); [5mC] = 5-methylcytosine; d = 2'-deoxy (DNA)
The substances below were run on human Factor 7 mRNA (assay: Antisense inhibition of human Factor 7 with short (14-mer) oligonucleotides in HepB3 cells, electroporation 1,000 nM). Conditions: electroporation, 1,000 nM antisense oligonucleotide, approximately 24 hours, Factor 7 mRNA relative to untreated control cells.
Format: cell-based
From the text: Short antisense oligonucleotides (shortmers) were designed to target a Factor 7 nucleic acid. The shortmers in Table 17 were designed as 2-10-2 MOE gapmers. The gapmers are 14 nucleotides in length, wherein the central gap segment is comprised of 10 2′-deoxynucleotides and is flanked on both sides (in the 5′ and 3′ directions) by wings comprising 2 nucleotides each. Each nucleotide in the 5′ wing segment and each nucleotide in the 3′ wing segment has a 2′-MOE modification. The internucleoside linkages throughout each gapmer are phosphorothioate (P═S) linkages. All cytidine residues throughout each gapmer are 5-methylcytidines.
Shortmers were evaluated for their ability to reduce human Factor 7 mRNA in HepB3 cells and compared with one 5-10-5 chimeric oligonucleotide from Table 16, ISIS 407939. HepB3 cells at a density of 20,000 cells per well in a 96-well plate were transfected using electroporation with 1,000 nM of antisense oligonucleotide. After a treatment period of approximately 24 hours, RNA was isolated from the cells and Factor 7 mRNA levels were measured by real-time RT-PCR, as described herein. Factor 7 mRNA levels were adjusted according to total RNA content as measured by RIBOGREEN®. Results are presented in Table 17 as percent inhibition of Factor 7 mRNA, relative to untreated control cells. ISIS 407939 is the first oligonucleotide in Table 17 to which the shortmers were compared, and is marked by an asterisk (*).
“435728 (antisense eA*e[5mC]*dA*d[5mC]*dA*dT*dG*dG*dA*dG*dT*d[5mC]*eA*eG) [compound 435728]” was tested, and the “% Inhibition” value was 16%.
In the case of “435646 (antisense eT*eA*dG*dG*dA*d[5mC]*dT*dG*dG*dA*dG*d[5mC]*eT*eG) [compound 435646]”, the “% Inhibition” value was 13%.
For “435823 (antisense eT*eG*dA*dG*dT*d[5mC]*d[5mC]*d[5mC]*dA*dG*dG*d[5mC]*eT*eG) [compound 435823]”, the “% Inhibition” value was 41%.
In the case of “435679 (antisense e[5mC]*eG*d[5mC]*dT*dG*dA*dG*dG*dT*d[5mC]*dG*dT*eG*e[5mC]) [compound 435679]”, the “% Inhibition” value was 62%.
“435760 (antisense eT*e[5mC]*dT*dT*dG*dG*dG*dT*dG*dT*dG*dG*eA*eT) [compound 435760]” was tested, and the “% Inhibition” value was 17%.
“435674 (antisense eA*eA*dA*d[5mC]*dA*dG*dT*dG*dG*dG*d[5mC]*d[5mC]*eG*e[5mC]) [compound 435674]” was tested, and the “% Inhibition” value was 34%.
For “435752 (antisense eT*eG*d[5mC]*dA*dG*d[5mC]*dT*dT*dG*d[5mC]*d[5mC]*dA*eG*eG) [compound 435752]”, the “% Inhibition” value was 12%.
In the case of “435746 (antisense eA*eT*dT*dG*dA*d[5mC]*dA*dA*dG*dG*dG*d[5mC]*eT*eG) [compound 435746]”, the “% Inhibition” value was 32%.
In the case of “435812 (antisense eG*e[5mC]*dT*dG*dA*dG*d[5mC]*dA*dG*dA*dG*dA*eT*e[5mC]) [compound 435812]”, the “% Inhibition” value was 35%.
“435741 (antisense eA*eG*dG*dG*dT*dT*d[5mC]*dA*dT*dT*dT*d[5mC]*eA*eG) [compound 435741]” was tested, and the “% Inhibition” value was 6%.
“435715 (antisense e[5mC]*eA*dG*d[5mC]*d[5mC]*dA*d[5mC]*dT*d[5mC]*dG*dA*dT*eG*eT) [compound 435715]” was tested, and the “% Inhibition” value was 35%.
For “435662 (antisense eT*eG*dG*dA*dT*dA*dT*dT*d[5mC]*dA*dA*d[5mC]*eT*eG) [compound 435662]”, the “% Inhibition” value was 19%.
“435803 (antisense eG*eA*dG*dA*dA*dT*dT*dG*d[5mC]*d[5mC]*d[5mC]*dA*eG*eG) [compound 435803]” was tested, and the “% Inhibition” value was 0%.
In the case of “435692 (antisense e[5mC]*eG*dG*dT*d[5mC]*d[5mC]*dA*dG*d[5mC]*dA*dG*d[5mC]*eT*eG) [compound 435692]”, the “% Inhibition” value was 32%.
With “435651 (antisense eA*e[5mC]*dA*dG*dT*dT*d[5mC]*d[5mC]*dG*dG*d[5mC]*d[5mC]*e[5mC]*eT) [compound 435651]” the “% Inhibition” value was 71%.
With “435677 (antisense eG*eT*dG*d[5mC]*dT*d[5mC]*dG*d[5mC]*d[5mC]*d[5mC]*dA*dG*e[5mC]*eA) [compound 435677]” the “% Inhibition” value was 60%.
In the case of “435496 (antisense eG*eG*dA*dG*dA*d[5mC]*d[5mC]*d[5mC]*dT*dG*dG*dT*eG*eT) [compound 435496]”, the “% Inhibition” value was 47%.
“435836 (antisense e[5mC]*eT*dA*dG*dG*dT*d[5mC]*dT*dG*d[5mC]*dA*dG*eG*eG) [compound 435836]” was tested, and the “% Inhibition” value was 41%.
In the case of “435498 (antisense eT*eG*dG*dG*dA*dG*dA*d[5mC]*d[5mC]*d[5mC]*dT*dG*eG*eT) [compound 435498]”, the “% Inhibition” value was 37%.
“435647 (antisense eA*eG*dA*dT*dA*dT*dA*dG*dG*dA*d[5mC]*dT*eG*eG) [compound 435647]” was tested, and the “% Inhibition” value was 0%.
With “435683 (antisense eA*eT*dG*dT*d[5mC]*dG*dT*dG*dG*dT*dT*dG*eG*eT) [compound 435683]” the “% Inhibition” value was 3%.
“435819 (antisense eT*eT*dT*dG*dT*d[5mC]*d[5mC]*dA*dG*dT*dA*dA*eG*eA) [compound 435819]” was tested, and the “% Inhibition” value was 1%.
“435726 (antisense eG*e[5mC]*dA*dA*dT*dG*dA*dA*dG*dG*d[5mC]*dA*eG*eA) [compound 435726]” was tested, and the “% Inhibition” value was 26%.
For “435665 (antisense eA*eG*dG*dT*dA*dT*dT*dT*dT*dT*d[5mC]*d[5mC]*eA*e[5mC]) [compound 435665]”, the “% Inhibition” value was 0%.
For “435807 (antisense e[5mC]*eA*dG*dT*dA*d[5mC]*dT*dT*d[5mC]*d[5mC]*d[5mC]*dA*e[5mC]*eG) [compound 435807]”, the “% Inhibition” value was 35%.
With “435659 (antisense eT*eA*d[5mC]*d[5mC]*d[5mC]*d[5mC]*dT*d[5mC]*dG*dT*dG*dG*e[5mC]*eA) [compound 435659]” the “% Inhibition” value was 18%.
“435844 (antisense eT*eG*dG*d[5mC]*d[5mC]*dA*dG*dT*dG*dG*d[5mC]*d[5mC]*eT*e[5mC]) [compound 435844]” was tested, and the “% Inhibition” value was 30%.
With “435758 (antisense e[5mC]*e[5mC]*d[5mC]*dT*dG*dA*dG*d[5mC]*dT*dG*dG*dG*e[5mC]*eA) [compound 435758]” the “% Inhibition” value was 4%.
With “435638 (antisense eA*eG*d[5mC]*d[5mC]*d[5mC]*dT*dG*dA*dA*dG*d[5mC]*d[5mC]*e[5mC]*eA) [compound 435638]” the “% Inhibition” value was 55%.
In the case of “435686 (antisense e[5mC]*eA*dG*dT*dG*dA*dG*dG*dA*d[5mC]*d[5mC]*dA*e[5mC]*eG) [compound 435686]”, the “% Inhibition” value was 31%.
With “435773 (antisense e[5mC]*eA*dG*dG*dG*dA*dA*d[5mC]*dA*d[5mC]*d[5mC]*d[5mC]*eT*e[5mC]) [compound 435773]” the “% Inhibition” value was 57%.
In the case of “435822 (antisense e[5mC]*e[5mC]*dA*dG*dG*dA*dG*d[5mC]*d[5mC]*dT*dT*dT*eA*e[5mC]) [compound 435822]”, the “% Inhibition” value was 37%.
“435843 (antisense eG*e[5mC]*dT*dG*dG*dA*dG*d[5mC]*dT*dG*dA*dG*e[5mC]*e[5mC]) [compound 435843]” was tested, and the “% Inhibition” value was 0%.
For “435479 (antisense e[5mC]*eA*d[5mC]*dT*d[5mC]*d[5mC]*d[5mC]*d[5mC]*dT*dT*dT*dG*eG*eG) [compound 435479]”, the “% Inhibition” value was 9%.
In the case of “435786 (antisense eA*eG*dG*dT*dG*dA*d[5mC]*d[5mC]*d[5mC]*dG*dT*dG*eA*eG) [compound 435786]”, the “% Inhibition” value was 68%.
In the case of “435832 (antisense eT*eG*d[5mC]*dT*d[5mC]*dA*dG*dA*d[5mC]*d[5mC]*dT*dG*eG*e[5mC]) [compound 435832]”, the “% Inhibition” value was 70%.
For “435755 (antisense eG*eG*dG*dA*d[5mC]*dT*d[5mC]*dA*dG*d[5mC]*dA*dA*eG*eA) [compound 435755]”, the “% Inhibition” value was 0%.
With “435480 (antisense eG*eG*dT*d[5mC]*dA*dT*d[5mC]*dA*dG*d[5mC]*d[5mC]*dG*eG*eG) [compound 435480]” the “% Inhibition” value was 53%.
“435673 (antisense eA*eG*dA*d[5mC]*d[5mC]*dA*d[5mC]*d[5mC]*d[5mC]*dA*dG*dA*eT*eG) [compound 435673]” was tested, and the “% Inhibition” value was 34%.
For “435761 (antisense e[5mC]*eA*dG*dA*dT*dG*dA*dA*dA*dA*d[5mC]*dT*eT*eG) [compound 435761]”, the “% Inhibition” value was 5%.
For “435644 (antisense eT*eG*dG*dT*d[5mC]*d[5mC]*dT*dT*dG*d[5mC]*dA*dG*eG*eA) [compound 435644]”, the “% Inhibition” value was 30%.
“435666 (antisense eG*eG*dT*dT*dT*dG*d[5mC]*dT*dG*dG*d[5mC]*dA*eT*eT) [compound 435666]” was tested, and the “% Inhibition” value was 71%.
With “435664 (antisense eT*eT*dT*dT*dT*d[5mC]*d[5mC]*dA*d[5mC]*dA*dT*dG*eG*eA) [compound 435664]” the “% Inhibition” value was 4%.
“435655 (antisense eA*e[5mC]*dA*dG*d[5mC]*d[5mC]*dG*d[5mC]*d[5mC]*dG*dT*dT*e[5mC]*eT) [compound 435655]” was tested, and the “% Inhibition” value was 49%.
With “435792 (antisense eT*eG*d[5mC]*dT*dG*dA*dA*dG*dA*dA*dA*d[5mC]*eT*eG) [compound 435792]” the “% Inhibition” value was 9%.
“435804 (antisense e[5mC]*eA*dG*dG*dG*dA*d[5mC]*dT*d[5mC]*dT*d[5mC]*dA*eG*e[5mC]) [compound 435804]” was tested, and the “% Inhibition” value was 26%.
With “435797 (antisense eA*eA*dT*d[5mC]*dT*dT*dG*dG*d[5mC]*d[5mC]*d[5mC]*d[5mC]*eT*e[5mC]) [compound 435797]” the “% Inhibition” value was 16%.
In the case of “435672 (antisense eA*e[5mC]*d[5mC]*d[5mC]*dA*dG*dA*dT*dG*dG*dT*dG*eT*eT) [compound 435672]”, the “% Inhibition” value was 12%.
“435656 (antisense eA*e[5mC]*dT*dG*d[5mC]*dT*d[5mC]*dA*d[5mC]*dA*dG*d[5mC]*e[5mC]*eG) [compound 435656]” was tested, and the “% Inhibition” value was 58%.
In the case of “435770 (antisense e[5mC]*eT*d[5mC]*dT*dG*dA*dG*dA*dG*dG*d[5mC]*d[5mC]*e[5mC]*e[5mC]) [compound 435770]”, the “% Inhibition” value was 81%.
For “435695 (antisense eG*eA*d[5mC]*dT*dG*d[5mC]*dT*dG*d[5mC]*dA*dG*dG*e[5mC]*eA) [compound 435695]”, the “% Inhibition” value was 48%.
With “435782 (antisense e[5mC]*eG*dT*dG*d[5mC]*dG*d[5mC]*dT*d[5mC]*dA*dG*d[5mC]*eT*e[5mC]) [compound 435782]” the “% Inhibition” value was 36%.
For “435503 (antisense eT*eG*dT*dA*d[5mC]*dT*dG*dG*dG*dA*dG*dA*e[5mC]*e[5mC]) [compound 435503]”, the “% Inhibition” value was 17%.
For “435661 (antisense eG*eG*dA*d[5mC]*dA*d[5mC]*d[5mC]*d[5mC]*d[5mC]*dG*dT*d[5mC]*eT*eG) [compound 435661]”, the “% Inhibition” value was 18%.
